Where two headings read alike, the source gives them in different places.

The target of one data set is USP5 (Homo sapiens). Put plainly: Deubiquitination assay, cleavage of GST-Ubiquitin-HA by USP5 (SDS-PAGE band intensity). The class given is biochemical. On the procedure:
(§1) For in vitro ubiquitination assays, 500 µM of ubiquitin was used for each ubiquitination reaction as described previously, in the absence or presence of 50–500 µM of CR. […] The generation of GST-ubiquitin from GST-Ubiquitin-HA as the mobility shifts were analyzed on 12.5% SDS-PAGE visualized by Coomassie blue staining. Band intensities were quantified by ImageJ [55] and used to generate the IC50 curves (log inhibitor vs. normalized response with variable slope) by GraphPad Prism version 6.0 for Windows (GraphPad Software, San Diego, CA, USA, www.graphpad.com).

For another data set, the target named is UCHL1 (Homo sapiens). Description: Deubiquitination assay, cleavage of GST-Ubiquitin-HA by UCHL1 (SDS-PAGE band intensity). It is filed as biochemical. On the procedure:
as §1

The next data set addresses ubiquitin (Homo sapiens, UniProt P0CG47). Description: Intrinsic fluorescence quenching assay of ubiquitin. Conditions: 50 µM ubiquitin, 0–500 µM compound, ex 274 nm / em 305 nm; read-out: Kd, dissociation constant upon binding to ubiquitin. The procedure: Intrinsic fluorescence quenching assays were performed as described previously. Briefly, intrinsic fluorescence quenching of ubiquitin by indicated compounds was observed by measuring the excitation and emission wavelength at 274 nm and 305 nm respectively of the mixture of 50 µM purified ubiquitin and 0–500 µM compound. Data were fitted to nonlinear regression curves with the equation described previously. F = −∆ε·[PC] + Fo(3) b = (Po + Co + Kd)(4) c = Po·Co(5) [PC] = [b − (b^2 − 4·c)^1/2]/2(6) where Fo and F are the normalized fluorescence intensity of the mixture of ubiquitin without the compound and with different concentrations of the compound, respectively. ∆ε is a difference in the extinction coefficient of the compound between their free and complex forms. [PC] is the concentration of protein/compound complex. Po and Co are the added concentration of ubiquitin and the compound, respectively in each experiment. Kd is the dissociation constant.

On the set-up of data set [1]: method as in PMID 27613091. Conditions: previous study ref 35; cited from earlier work.
Data set [2] deals with HCT116 cells. Put plainly: Dox-induced cell death, colorimetric cell viability, HCT116. It is filed as cell-based. As to conditions: for Effect on Dox-induced cell death, HCT116: 10 µM CR or 5 µM NSC697923 12 h, then Dox 1.25–5.0 μM 12 h. On the procedure: (§2) Figure 7 CR enhances Dox sensitivity of cancer cells. (a,b) Enhancement of Dox-induced apoptosis of cancer cells by CR treatment. Dox–induced apoptosis of H1299 (a) and HCT116 (b) was quantified by colorimetric cell viability after treating 10 µM CR for 12 h followed by 12h treatment of Dox (0.0–5.0 µM). […] Caspase activity was quantified by luminogenic caspase activity assay. […] All error bars represent the standard deviation from at least four independent experiments. Statistical significance was calculated by the Student’s t-test (** p < 0.01, *** p < 0.001).
(§3) Cell viability assays were performed as described previously. For the caspase assays, the media were removed, and cells were lysed in 200 µL lysis buffer containing 50 µL Caspase Glo 3/7 solution and incubated for 15 min. Results were observed by measuring the luminescence signal using KOMM-Nr (Berthold Technologies, Bad Wildbad, Germany) and normalized with the total protein concentration measured by the Bradford assay. […]
(§4) Figure S8. NSC697923 enhances Dox sensitivity of cancer cells. (a, b) Effect of NSC697923 to cancer cells’ viability in Dox treatment . Dox–induced cell death of H1299 ( a) and HCT116 ( b) was quantified by colorimetric cell viability assay after treating 5 µM NSC697923 for 12 h followed by 12h treatment of Dox (0.0 […]
(§5) NSC697923. Caspase activity was quantified by luminogenic caspase activity assay. All error bars represent the standard deviation from at least 4 independent experiments. *, P<0.05; **, P<0.01; ***, P<0.001.

The subject of data set [3] is H1299 cells. Description: Dox-induced cell death, colorimetric cell viability, H1299. It is filed as cell-based. The procedure:
as §2
(§6) Cell viability assays were performed as described previously. For the caspase assays, the media were removed, and cells were lysed in 200 µL lysis buffer containing 50 µL Caspase Glo 3/7 solution and incubated for 15 min. Results were observed by measuring the luminescence signal using KOMM-Nr (Berthold Technologies, Bad Wildbad, Germany) and normalized with the total protein concentration measured by the Bradford assay. Data were analyzed using GraphPad Prism version 6.0 for Windows with two tail t-test for statistical data analysis […]
as §4, §5

The test system of data set [4] is H1299 cells. Description: Dox-induced K48- and K63-polyubiquitination in cells (immunofluorescence staining, Western blot). The class given is cell-based. Conditions: H1299, non-pretreated, 5 µM Dox. On the procedure: Figure 6 CR inhibits Dox-induced ubiquitination in the cells. (a) Immunofluorescence staining of H1299 cells treated with or without 5 (+) and 10 (++) μM CR for 12 h followed by addition of Dox to a final concentration of 5 μM, with incubation for 12 h. The cells were subjected to immunofluorescence staining using the antibodies against K48 (αK48) and K63 polyubiquitins (αK63). (b) K48 or K63 polyubiquitin level in Figure 6a was quantified by fluorescence signal. At least seven random regions acquired in confocal images were sampled and normalized against DAPI intensity for quantification. (c) Immunoblots of samples in Figure 6a using the indicated antibodies. […] Statistical significance was calculated by the Student’s t-test (* p < 0.05, ** p < 0.01, *** p < 0.001).
Cells were seeded in the SPL 4 wells cell culture chamber slide 24 h before experiment. […] Subsequently, cells were incubated with primary antibody at 1/200 dilution in blocking buffer overnight and then washed with blocking buffer five times (5 min each) before incubation with fluorescence-conjugated secondary antibody at 1/200 dilution in blocking buffer for 1 h. […] Images acquired in confocal imaging were subjected to fluorescence intensity analysis using ImageJ [55]. Fluorescence signal representing a particular ubiquitin chain level was analyzed and normalized with the intensity of DAPI. […]
On the technique in general: In western blotting, separated proteins are transferred to a membrane and probed.

In data set [5] the test system is HCT116 cells. Description: Luminogenic caspase activity assay (Caspase Glo 3/7), HCT116. It is filed as cell-based. As to conditions: 10 µM CR or 5 µM NSC697923 with Dox. The procedure:
as §2, §3, §4
(§7) NSC697923. Caspase activity was quantified by luminogenic caspase activity assay. […]

The subject of data set [6] is H1299 cells. Put plainly: Luminogenic caspase activity assay (Caspase Glo 3/7), H1299. The class given is cell-based. As to conditions: 10 µM CR or 5 µM NSC697923 with Dox. The procedure: as §2, §3, §4, §7
Data set [7] concerns H1299 cells. Put plainly: Cytotoxicity, cell viability assay. It is filed as cell-based. Conditions: determined by cytotoxicity assays. The procedure: as §6
Figure S7. Cytotoxicity of CR to cancer cells. H1299 cells were cultured in 96 -well plates. CR was added to final concentrations of 0.0 – 50.0 µM, and the cells were incubated for 24 h followed by cell viability assay. All error bars represent the standard deviation from at least 4 independent experiments. Statistical comparisons between groups were determined by Student’s t -test. If p -values are less than 0.05, they are statistically significant . NS, not […]
(1 picture or pasted object on this page, not shown here)

The mark [8] stands for this setting: 0.6 µM USP5, 5 µM GST-Ubiquitin-HA, 0–45 µM compound, read-out: IC50 USP5 (DUB activity).
Where [9] appears, read: 8 µM UCHL1, 5 µM GST-Ubiquitin-HA, 0–45 µM compound, read-out: IC50 UCHL1 (DUB activity).

Sequence of USP5 (Homo sapiens) (P45974 2-858, other chains not shown): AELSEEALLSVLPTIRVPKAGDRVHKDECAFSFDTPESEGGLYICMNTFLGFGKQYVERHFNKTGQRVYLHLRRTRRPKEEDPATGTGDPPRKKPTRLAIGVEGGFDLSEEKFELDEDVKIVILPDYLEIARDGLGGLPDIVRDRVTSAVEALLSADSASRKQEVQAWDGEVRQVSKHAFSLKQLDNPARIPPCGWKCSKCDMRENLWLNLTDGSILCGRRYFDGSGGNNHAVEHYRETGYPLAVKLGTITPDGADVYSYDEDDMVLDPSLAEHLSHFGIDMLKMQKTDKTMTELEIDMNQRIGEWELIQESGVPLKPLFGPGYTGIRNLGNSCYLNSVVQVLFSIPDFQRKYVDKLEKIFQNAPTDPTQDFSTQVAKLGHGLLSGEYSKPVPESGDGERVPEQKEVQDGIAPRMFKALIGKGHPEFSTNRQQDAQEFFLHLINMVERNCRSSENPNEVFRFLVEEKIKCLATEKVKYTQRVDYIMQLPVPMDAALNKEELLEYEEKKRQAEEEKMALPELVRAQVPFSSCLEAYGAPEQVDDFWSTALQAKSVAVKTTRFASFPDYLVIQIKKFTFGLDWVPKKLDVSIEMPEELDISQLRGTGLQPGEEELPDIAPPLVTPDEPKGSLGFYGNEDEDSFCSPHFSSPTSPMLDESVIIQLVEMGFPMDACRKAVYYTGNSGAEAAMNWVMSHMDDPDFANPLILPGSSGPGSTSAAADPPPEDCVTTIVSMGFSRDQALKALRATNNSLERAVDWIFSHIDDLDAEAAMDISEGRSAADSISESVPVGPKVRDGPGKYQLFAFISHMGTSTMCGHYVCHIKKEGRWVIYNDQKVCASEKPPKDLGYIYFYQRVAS
Sequence of UCHL1 (Homo sapiens) (P09936 whole entry, other chains not shown): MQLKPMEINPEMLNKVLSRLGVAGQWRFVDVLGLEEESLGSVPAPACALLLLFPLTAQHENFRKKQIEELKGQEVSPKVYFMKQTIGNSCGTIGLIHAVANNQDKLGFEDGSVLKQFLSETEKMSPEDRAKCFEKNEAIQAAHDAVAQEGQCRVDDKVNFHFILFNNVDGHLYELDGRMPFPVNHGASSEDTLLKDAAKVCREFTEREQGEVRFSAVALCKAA

For orientation: IC50 means the point on the concentration scale where inhibition reaches its midpoint. Broadly, the Kd is the equilibrium constant for the complex coming apart. As for `COc1cc(-c2ccc(/N=N/c3ccc4c(S(=O)(=O)O)cc(S(=O)(=O)O)c(N)c4c3O)c(OC)c2)ccc1/N=N/c1ccc2c(S(=O)(=O)O)cc(S(=O)(=O)O)c(N)c2c1O` [CSB6B, Chicago Sky Blue 6B], the IC50 against USP5 (Homo sapiens) came out at 6.52 ± 0.786 µM; on UCHL1 (Homo sapiens), 11.2 ± 1.37 µM. At ubiquitin, the Kd stood at 12 ± 0.678 µM. In addition, the Cell membrane penetration entry in data set [1] is given as “not able to penetrate the cell membrane”.
On to `COc1cc(-c2ccc(/N=N/c3c(S(=O)(=O)O)cc4cc(S(=O)(=O)O)cc(N)c4c3O)c(OC)c2)ccc1/N=N/c1c(S(=O)(=O)O)cc2cc(S(=O)(=O)O)cc(N)c2c1O` [DB15, Direct blue 15], for which the IC50 at USP5 (Homo sapiens) (setting [8]) was determined as 32.5 ± 5 µM. Moreover, the Kd on ubiquitin amounted to 60.3 ± 2.3 µM.
With `Nc1ccc2c(O)c(N=Nc3ccc(N=Nc4ccc(N=Nc5cc(S(=O)(=O)O)c6cccc(S(=O)(=O)O)c6c5)c5ccccc45)c4ccc(S(=O)(=O)O)cc34)c(S(=O)(=O)O)cc2c1` [DB71, Direct blue 71], the IC50 at USP5 (Homo sapiens) (setting [8]) came out at 13.7 ± 2.74 µM; at UCHL1 (Homo sapiens) (setting [9]), 33.7 ± 4.05 µM. The Kd on ubiquitin stood at 20 ± 0.835 µM.
With `COc1cccc2c1C(=O)c1c(O)c3c(c(O)c1C2=O)C[C@@](O)(C(=O)CO)C[C@@H]3O[C@H]1C[C@H](N)[C@H](O)[C@H](C)O1` [Dox, doxorubicin], the “Dox-induced cell death, Dox alone, HCT116” value with HCT116 cells [2] (Dox 1.25 to 5.0 μM, 12 h) is recorded as “proportional to the Dox concentration”. For the same compound, the “Dox-induced cell death, Dox alone, H1299” value in the data set on H1299 cells [3] (Dox 1.25 to 5.0 μM, 12 h) is given as “proportional to the Dox concentration”. Moreover, the “K48- and K63-polyubiquitination upon Dox alone” value in the data set on H1299 cells [4] is “enhanced K48- and K63-polyubiquitination”.
In the case of `Cc1cc(-c2ccc(/N=N/c3ccc4c(S(=O)(=O)O)cc(S(=O)(=O)O)c(N)c4c3O)c(C)c2)ccc1/N=N/c1ccc2c(S(=O)(=O)O)cc(S(=O)(=O)O)c(N)c2c1O` [EB, Evans blue], the results for the IC50 at USP5 (Homo sapiens) (setting [8]) and on UCHL1 (Homo sapiens) (setting [9]) were 9.33 ± 1.58 µM and 18.1 ± 2.09 µM, respectively. Besides, on ubiquitin, the Kd came out at 13 ± 0.689 µM.
For the compound `Cc1ccc(S(=O)(=O)c2ccc([N+](=O)[O-])o2)cc1` [NSC697923], the “Effect on Dox-induced cell death, HCT116” value is “only a synergistic effect at low concentrations of Dox” in the data set with HCT116 cells [2] and “significantly enhanced Dox-induced cell death” in the data set on HCT116 cells [2] (listed as NSC967923). Further, in the data set on HCT116 cells [5], the “Effect on caspase activity of Dox-treated HCT116 cells” value is “Enhanced caspase activity”. In the data set on H1299 cells [3] (10 µM CR or 5 µM NSC697923 12 h, then Dox 1.25–5.0 μM 12 h), the “Effect on Dox-induced cell death, H1299” value is recorded as “significantly enhanced Dox-induced cell death”. The “Effect on caspase activity of Dox-treated H1299 cells” value in the data set on H1299 cells [6] is “Enhanced caspase activity”. This compound also yielded a None-toxicity concentration with H1299 cells [7] of 5 µM.
On to `Cc1cc(-c2ccc(/N=N/c3c(S(=O)(=O)O)cc4cc(S(=O)(=O)O)cc(N)c4c3O)c(C)c2)ccc1/N=N/c1c(S(=O)(=O)O)cc2cc(S(=O)(=O)O)cc(N)c2c1O` [TB, Trypan blue], for which, on USP5 (Homo sapiens) (setting [8]), the half-maximal inhibitory concentration (IC50) is greater than 45 µM. In addition, the Kd at ubiquitin was determined as 78.1 ± 4.02 µM.
